{"source": "paper doi:10.1101/2020.06.18.159418v1", "about": "(biorxiv, 2020)", "assay_type_in_all_cases": "binding", "key": {"[1]": {"molecular_target": "T1, HuPrP90-231 (Homo sapiens, UniProt P04156)", "T1 construct": "gene PRNP", "assay": "biochemical"}, "[2]": {"molecular_target": "T1, HuPrP90-231"}, "[3]": {"molecular_target": "T2, HuPrP23-231 (Homo sapiens, UniProt P04156)", "T2 construct": "gene PRNP", "details": "0.3-1 mM compound, 20 mM HEPES pH 7.4, 150 mM NaCl, 3% DMSO, 298 K"}}, "note": "pKd: −log10 of the molar value.", "data": [{"molecule": "Cc1nc2cc(Cl)c(Cl)cc2[nH]1", "note": "[compound 1, 5,6-dichloro-2-methyl-1H-benzimidazole]", "values": [{"measurement": "pKd", "setting": "[1]", "value": "< 3.00"}, {"measurement": "decrease in melting temperature", "setting": "[2]", "value": "~ 0.2 °C"}, {"measurement": "1H-15N TROSY NMR chemical shift perturbation", "setting": "[3]", "value": "we observed similar resonance shifts in the full-length protein HuPrP23-231"}]}]}
